Reference: paper PMC12040169 (PLOS Biology, 2025)

Experiment: in vitro
Conditions: human, hela cells, % viability

Structure (SMILES)	viability at 28.5 h, 10 µM [%]
Cc1ccc(S(=O)(=O)/N=C(\Nc2nc3ccccc3o2)NS(=O)(=O)c2ccc(C)cc2)cc1 [CBK266728]	86
CCCCCC/C=C/c1cnc2nc(NC(=O)NCC)ccc2c1 [CBK061880]	93.3
COc1ccc(-n2nc([N+](=O)[O-])c(NCc3ccccn3)[n+]2[O-])cc1 [CBK268430]	96.3
CC(C)(C)c1ccc(OCC(=O)Nc2ccc(S(=O)(=O)N3CCc4ccccc43)cc2)cc1 [CBK265352]	100
COc1ccc(-c2cc(C(=O)NCc3nc4ccccc4[nH]3)cnc2-c2ccccc2)cn1 [CBK037579]	99.6
O=C(NCc1cccnc1)c1ccccc1-n1cccc1 [CBK149602]	92.3
CCn1c(C(CC(C)C)NC(=O)c2ccco2)nc2cccnc21 (stereo not shown) [CBK283523]	94.3
O=C(CCC(=O)c1ccc2c(c1)OCCO2)OCC(=O)c1ccc(Cl)c(Cl)c1 [CBK264825]	87.5
CC(=O)Nc1cc(I)cc(C(=O)O)c1 [CBK026452G]	104
O=[N+]([O-])c1ccccc1S(=O)(=O)N1CCN(Cc2cccc(Oc3ccccc3)c2)CC1 [CBK264283]	98.9
COc1ccc(Oc2cncc(OC3CCN(CCc4ccc(F)cc4)C3)n2)cc1OC (stereo not shown) [CBK084409]	94.1
CN1CCCc2ccc(S(=O)(=O)Nc3ccc4nncn4c3)cc21 [CBK306435]	98.6
CC(C)(C)NC(=O)N1CCC(=O)N1 [CBK007341]	95.9
CN1CCOCC(CNC(=O)c2ccc(-c3cnc(N)nc3)cc2)C1 (stereo not shown) [CBK307119]	100
O=C(Nc1ccc2oc(-c3cccnc3)nc2c1)c1ccc(Br)o1 [CBK263436]	112
O=C(C1CCCN(c2ccc3nncn3n2)C1)N1CCOCC1 (stereo not shown) [CBK287901]	104
Cc1ccc(N2C(=O)N[C@@H]3CCN(S(=O)(=O)c4ccccc4)[C@@H]3C2=O)cc1 [CBK289285]	107

Structure (SMILES)	viability at 28.5 h, 10 µM [%]
C=CCC1(CC=C)CCN1C(=O)c1cc(-c2ccccn2)n[nH]1 [CBK282448]	106
O=C(Nc1cccc(-c2nc3ccccc3s2)c1)c1ccc(Cn2cnnn2)cc1 [CBK285823]	85.2
Cc1ccc(S(=O)(=O)c2ccccc2)cc1S(=O)(=O)NCc1ccncc1 [CBK270073]	98.4
COC(=O)CCn1c(=O)c2c(nc3oc(C(C)(C)C)cn32)n(C)c1=O [CBK306034]	87.7
CCC1CCCCN1Cc1c(O)ccc2c(=O)c(Oc3ccc(OC)cc3)c(C(F)(F)F)oc12 (stereo not shown) [CBK263727]	98.8
CC(=O)N1CCc2cc(C)ccc2C12CCN(CCCOc1ccccc1)CC2 [CBK081064]	92.4
Cc1nc2c(c(=O)[nH]1)CN(C(=O)Cc1c(F)cccc1Cl)CC2 [CBK283589]	92.1
COc1ccc([C@@]23CC[C@@H](NC(=O)Nc4ccc(F)c(F)c4)C[C@@H]2N(C)CC3)cc1C#N [CBK067952T]	107
Cc1cc(C)c2oc(-c3ccc(C)c(NC(=O)COc4ccccc4C)c3)nc2c1 [CBK263067]	103
COc1ccc(S(=O)(=O)n2ccn(-c3ccc(Oc4ccccc4)cc3)c2=O)cc1OC [CBK106649]	86.9
Cc1nc2sccn2c1CN1CCC(O)(c2ccc(F)cc2)CC1 [CBK282792]	98.2
O=S(=O)(Nc1ccccn1)N1CCOCC1 [CBK269391]	86.9
CC(Oc1ccc(Cl)cc1Cl)C(=O)N1CCN(Cc2ccc3c(c2)OCO3)CC1 (stereo not shown) [CBK074438]	95.2
Oc1ccc(Cl)cc1/C=N/c1ccc(-c2cc(-c3ccc(/N=C/c4cc(Cl)ccc4O)cc3)ncn2)cc1 [CBK261626]	101
CN(CP(=O)(O)CCc1ccccc1)S(C)(=O)=O [CBK263068]	95.1
CN(CCOC(=O)c1cccnc1)C(C)(C)C [CBK027543C]	88.8
O=C(NCCc1c[nH]c2cccc(C3(O)CCCC3)c12)C1CC1 [CBK285319]	82.3
